Results as given in ChEMBL document CHEMBL1770059, “Identification of chemicals to inhibit the kinase activity of leucine-rich repeat kinase 2 (LRRK2), a Parkinson's disease-associated protein” (Bioorg Med Chem Lett, 2011).
Active and inactive are the calls of the source. The rule behind the calls is not given here.

How the values were obtained:
[1] = target: RAF proto-oncogene serine/threonine-protein kinase (Homo sapiens) (UniProt P04049); test: Inhibition of c-Raf assessed as residual activity of enzyme at 25 uM
[2] = test system: Leucine-rich repeat serine/threonine-protein kinase 2 (Homo sapiens), Q5S007 [G2019S]; test: Inhibition of purified N-terminal GST-tagged LRRK2 G2019S mutant assessed as residual activity of enzyme at 25 uM
[3] = target: Ribosomal protein S6 kinase beta-1 (Homo sapiens) (UniProt P23443); test: Inhibition of p70S6K assessed as residual activity of enzyme at 25 uM
[4] = target: T1, Serine/threonine-protein kinase TAO1 (Homo sapiens) (UniProt Q7L7X3); test: Inhibition of TAO1 assessed as residual activity of enzyme at 25 uM
T1 sequence (whole entry): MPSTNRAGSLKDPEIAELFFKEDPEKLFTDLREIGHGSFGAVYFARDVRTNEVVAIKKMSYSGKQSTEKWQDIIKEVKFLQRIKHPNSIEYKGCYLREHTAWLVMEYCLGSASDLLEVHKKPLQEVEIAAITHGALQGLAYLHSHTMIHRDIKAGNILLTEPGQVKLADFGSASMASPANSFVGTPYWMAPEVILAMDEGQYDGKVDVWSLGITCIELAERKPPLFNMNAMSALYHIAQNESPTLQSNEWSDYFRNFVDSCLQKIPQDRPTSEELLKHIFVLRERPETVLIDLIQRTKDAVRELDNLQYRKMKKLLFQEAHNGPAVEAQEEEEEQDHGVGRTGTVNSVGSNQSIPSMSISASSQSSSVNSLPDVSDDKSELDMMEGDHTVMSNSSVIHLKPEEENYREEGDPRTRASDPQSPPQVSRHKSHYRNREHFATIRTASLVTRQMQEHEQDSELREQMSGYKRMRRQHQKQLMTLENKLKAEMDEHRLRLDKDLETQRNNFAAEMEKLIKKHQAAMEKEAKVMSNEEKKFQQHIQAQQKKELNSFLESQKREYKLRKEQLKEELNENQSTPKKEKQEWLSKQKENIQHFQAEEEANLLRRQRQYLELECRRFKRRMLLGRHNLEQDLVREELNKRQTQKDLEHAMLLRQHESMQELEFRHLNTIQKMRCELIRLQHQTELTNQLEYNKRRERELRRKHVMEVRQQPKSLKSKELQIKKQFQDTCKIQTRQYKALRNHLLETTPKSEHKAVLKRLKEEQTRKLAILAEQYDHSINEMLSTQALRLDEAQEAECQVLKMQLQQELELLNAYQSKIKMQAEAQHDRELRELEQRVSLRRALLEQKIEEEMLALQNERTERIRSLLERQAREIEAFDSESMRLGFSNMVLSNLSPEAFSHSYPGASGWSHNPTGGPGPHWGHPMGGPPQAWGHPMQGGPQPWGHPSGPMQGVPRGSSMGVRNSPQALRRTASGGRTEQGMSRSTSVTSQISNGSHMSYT

[5] = target: Glycogen synthase kinase-3 beta (Homo sapiens) (UniProt P49841); test: Inhibition of GSK3-beta assessed as residual activity of enzyme at 25 uM
[6] = target: T2, Mitogen-activated protein kinase kinase kinase 5 (Homo sapiens) (UniProt Q99683); test: Inhibition of ASK1 assessed as residual activity of enzyme at 10 uM
T2 sequence (whole entry): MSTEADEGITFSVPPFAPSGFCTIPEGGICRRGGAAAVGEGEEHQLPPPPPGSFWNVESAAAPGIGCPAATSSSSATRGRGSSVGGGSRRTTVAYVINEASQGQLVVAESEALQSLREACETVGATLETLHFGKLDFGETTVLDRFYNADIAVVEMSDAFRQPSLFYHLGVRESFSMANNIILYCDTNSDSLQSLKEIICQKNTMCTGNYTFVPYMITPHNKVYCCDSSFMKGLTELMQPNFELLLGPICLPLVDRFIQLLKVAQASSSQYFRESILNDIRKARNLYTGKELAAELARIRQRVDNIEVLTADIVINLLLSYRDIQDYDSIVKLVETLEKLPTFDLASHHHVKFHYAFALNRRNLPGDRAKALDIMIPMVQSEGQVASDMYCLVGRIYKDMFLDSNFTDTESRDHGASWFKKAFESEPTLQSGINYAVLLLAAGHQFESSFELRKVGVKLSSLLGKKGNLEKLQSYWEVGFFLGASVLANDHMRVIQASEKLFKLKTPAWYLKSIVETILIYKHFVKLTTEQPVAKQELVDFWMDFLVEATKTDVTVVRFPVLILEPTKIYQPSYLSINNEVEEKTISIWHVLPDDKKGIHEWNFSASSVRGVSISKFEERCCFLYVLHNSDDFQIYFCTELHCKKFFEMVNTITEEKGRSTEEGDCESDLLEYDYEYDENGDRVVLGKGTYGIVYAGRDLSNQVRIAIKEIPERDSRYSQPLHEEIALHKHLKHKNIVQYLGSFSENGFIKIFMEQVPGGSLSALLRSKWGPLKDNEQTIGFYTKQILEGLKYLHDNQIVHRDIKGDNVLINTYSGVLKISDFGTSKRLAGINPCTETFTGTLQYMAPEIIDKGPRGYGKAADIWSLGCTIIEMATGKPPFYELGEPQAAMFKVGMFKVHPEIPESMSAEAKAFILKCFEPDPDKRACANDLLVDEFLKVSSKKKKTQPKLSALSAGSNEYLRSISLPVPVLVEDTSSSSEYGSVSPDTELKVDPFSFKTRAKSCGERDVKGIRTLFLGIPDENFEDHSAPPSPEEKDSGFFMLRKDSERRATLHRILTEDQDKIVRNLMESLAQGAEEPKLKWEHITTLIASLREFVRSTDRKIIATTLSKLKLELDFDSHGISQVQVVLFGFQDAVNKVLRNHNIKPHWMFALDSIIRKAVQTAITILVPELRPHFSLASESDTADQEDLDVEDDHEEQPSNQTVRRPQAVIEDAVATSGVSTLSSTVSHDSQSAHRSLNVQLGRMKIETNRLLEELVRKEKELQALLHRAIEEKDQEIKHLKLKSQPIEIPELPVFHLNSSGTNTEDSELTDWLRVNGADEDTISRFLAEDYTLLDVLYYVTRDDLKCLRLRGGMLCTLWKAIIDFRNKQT

[7] = target: Ribosomal protein S6 kinase beta-1 (Homo sapiens) (UniProt P23443); test: Inhibition of p70S6K assessed as residual activity of enzyme at 10 uM
[8] = target: T2, Mitogen-activated protein kinase kinase kinase 5 (Homo sapiens); test: Inhibition of ASK1 assessed as residual activity of enzyme at 25 uM
[9] = test system: Leucine-rich repeat serine/threonine-protein kinase 2 (Homo sapiens), Q5S007 [G2019S]; test: Inhibition of purified N-terminal GST-tagged LRRK2 G2019S mutant assessed as residual activity of enzyme at 10 uM
[10] = Neurotoxicity in rat primary cortical neurons assessed as cell survival at 100 uM after 24 hrs by MTT assay; assay type: toxicity, cell-based; conditions: cerebral cortex neuron
[11] = target: Serine/threonine-protein kinase mTOR (Homo sapiens) (UniProt P42345); test: Inhibition of mTOR assessed as residual activity of enzyme at 10 uM
[12] = test system: Leucine-rich repeat serine/threonine-protein kinase 2 (Homo sapiens), Q5S007 [G2019S]; test: Inhibition of purified N-terminal GST-tagged LRRK2 G2019S mutant autophosphorylation activity using myelin basic protein as substrate at 25 uM

Chain of Leucine-rich repeat serine/threonine-protein kinase 2 (Homo sapiens), Q5S007 [G2019S] (Q5S007 whole entry G2019S): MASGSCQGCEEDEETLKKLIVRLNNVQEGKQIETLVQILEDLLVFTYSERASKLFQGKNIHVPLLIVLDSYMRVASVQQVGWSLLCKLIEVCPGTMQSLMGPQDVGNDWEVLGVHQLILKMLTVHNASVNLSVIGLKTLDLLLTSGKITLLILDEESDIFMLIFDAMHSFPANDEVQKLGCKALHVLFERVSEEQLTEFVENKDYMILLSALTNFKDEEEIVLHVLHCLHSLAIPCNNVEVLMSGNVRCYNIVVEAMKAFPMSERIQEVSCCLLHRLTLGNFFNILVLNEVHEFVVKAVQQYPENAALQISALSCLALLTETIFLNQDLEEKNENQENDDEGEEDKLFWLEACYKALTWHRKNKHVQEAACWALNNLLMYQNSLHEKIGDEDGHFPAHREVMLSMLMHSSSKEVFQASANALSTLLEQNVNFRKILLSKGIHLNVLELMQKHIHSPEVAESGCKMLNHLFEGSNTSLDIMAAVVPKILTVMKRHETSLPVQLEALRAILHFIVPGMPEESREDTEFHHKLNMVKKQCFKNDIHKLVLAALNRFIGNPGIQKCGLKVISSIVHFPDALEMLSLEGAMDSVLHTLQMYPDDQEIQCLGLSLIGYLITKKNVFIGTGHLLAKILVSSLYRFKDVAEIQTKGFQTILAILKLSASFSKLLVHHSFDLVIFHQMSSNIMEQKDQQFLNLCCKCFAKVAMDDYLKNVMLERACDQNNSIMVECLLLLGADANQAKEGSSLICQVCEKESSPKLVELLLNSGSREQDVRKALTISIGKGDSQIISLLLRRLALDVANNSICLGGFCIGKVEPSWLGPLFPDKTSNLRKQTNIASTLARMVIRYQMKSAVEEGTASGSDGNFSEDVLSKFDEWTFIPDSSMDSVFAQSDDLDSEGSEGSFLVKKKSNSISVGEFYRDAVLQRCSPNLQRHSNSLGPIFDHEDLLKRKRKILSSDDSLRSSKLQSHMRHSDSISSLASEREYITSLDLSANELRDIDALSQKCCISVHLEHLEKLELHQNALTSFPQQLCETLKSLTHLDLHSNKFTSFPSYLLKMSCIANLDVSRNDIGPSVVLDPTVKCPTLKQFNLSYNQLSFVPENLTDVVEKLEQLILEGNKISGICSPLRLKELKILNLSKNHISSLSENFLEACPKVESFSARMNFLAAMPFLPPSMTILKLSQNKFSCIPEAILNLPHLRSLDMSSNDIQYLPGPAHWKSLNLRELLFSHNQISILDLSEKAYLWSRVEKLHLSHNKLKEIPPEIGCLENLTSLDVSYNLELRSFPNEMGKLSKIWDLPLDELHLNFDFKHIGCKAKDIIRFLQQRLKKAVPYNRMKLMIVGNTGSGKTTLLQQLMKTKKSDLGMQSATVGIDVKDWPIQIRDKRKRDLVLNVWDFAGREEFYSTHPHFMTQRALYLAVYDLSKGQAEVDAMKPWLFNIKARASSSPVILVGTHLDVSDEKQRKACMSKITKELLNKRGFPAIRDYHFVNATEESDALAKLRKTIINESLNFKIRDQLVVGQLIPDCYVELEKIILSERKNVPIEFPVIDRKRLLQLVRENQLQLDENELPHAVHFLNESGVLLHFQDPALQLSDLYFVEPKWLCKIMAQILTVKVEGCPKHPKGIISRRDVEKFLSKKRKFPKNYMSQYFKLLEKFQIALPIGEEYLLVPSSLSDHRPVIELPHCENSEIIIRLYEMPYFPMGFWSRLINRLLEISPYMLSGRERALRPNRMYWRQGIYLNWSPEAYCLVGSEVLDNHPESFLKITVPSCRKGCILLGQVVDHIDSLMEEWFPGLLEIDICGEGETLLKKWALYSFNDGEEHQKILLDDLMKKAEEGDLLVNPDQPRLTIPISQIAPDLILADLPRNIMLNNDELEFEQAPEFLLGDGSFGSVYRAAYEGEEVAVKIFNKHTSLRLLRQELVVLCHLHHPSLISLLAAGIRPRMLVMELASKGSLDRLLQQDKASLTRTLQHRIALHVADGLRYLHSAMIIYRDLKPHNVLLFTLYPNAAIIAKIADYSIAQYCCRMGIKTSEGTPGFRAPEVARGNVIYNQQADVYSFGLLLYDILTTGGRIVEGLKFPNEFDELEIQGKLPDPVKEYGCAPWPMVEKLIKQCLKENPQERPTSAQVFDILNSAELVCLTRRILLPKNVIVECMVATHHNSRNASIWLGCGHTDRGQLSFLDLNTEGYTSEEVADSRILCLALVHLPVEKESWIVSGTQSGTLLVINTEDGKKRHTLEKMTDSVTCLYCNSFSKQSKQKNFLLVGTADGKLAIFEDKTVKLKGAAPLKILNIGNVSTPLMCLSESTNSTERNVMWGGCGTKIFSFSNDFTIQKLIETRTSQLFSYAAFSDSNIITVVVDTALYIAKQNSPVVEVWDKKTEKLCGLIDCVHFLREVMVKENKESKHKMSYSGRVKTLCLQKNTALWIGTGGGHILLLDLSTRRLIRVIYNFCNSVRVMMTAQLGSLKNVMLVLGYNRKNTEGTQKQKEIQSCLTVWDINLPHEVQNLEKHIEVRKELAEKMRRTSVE
Chain of Ribosomal protein S6 kinase beta-1 (Homo sapiens) (P23443 whole entry, looked up): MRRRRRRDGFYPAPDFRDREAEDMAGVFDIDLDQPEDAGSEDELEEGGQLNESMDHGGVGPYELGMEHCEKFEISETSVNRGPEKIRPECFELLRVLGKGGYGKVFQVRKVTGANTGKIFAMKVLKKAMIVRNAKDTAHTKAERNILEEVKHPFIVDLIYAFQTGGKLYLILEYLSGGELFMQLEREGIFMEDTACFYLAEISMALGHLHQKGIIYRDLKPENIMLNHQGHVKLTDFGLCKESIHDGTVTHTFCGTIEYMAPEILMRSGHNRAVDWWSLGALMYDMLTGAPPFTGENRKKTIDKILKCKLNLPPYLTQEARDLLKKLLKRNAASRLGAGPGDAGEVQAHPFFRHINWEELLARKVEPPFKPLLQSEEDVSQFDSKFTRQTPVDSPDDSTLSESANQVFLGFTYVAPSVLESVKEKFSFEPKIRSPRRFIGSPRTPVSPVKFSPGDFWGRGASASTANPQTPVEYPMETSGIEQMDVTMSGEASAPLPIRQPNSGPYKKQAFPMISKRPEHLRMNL
Chain of Glycogen synthase kinase-3 beta (Homo sapiens) (P49841 whole entry, looked up): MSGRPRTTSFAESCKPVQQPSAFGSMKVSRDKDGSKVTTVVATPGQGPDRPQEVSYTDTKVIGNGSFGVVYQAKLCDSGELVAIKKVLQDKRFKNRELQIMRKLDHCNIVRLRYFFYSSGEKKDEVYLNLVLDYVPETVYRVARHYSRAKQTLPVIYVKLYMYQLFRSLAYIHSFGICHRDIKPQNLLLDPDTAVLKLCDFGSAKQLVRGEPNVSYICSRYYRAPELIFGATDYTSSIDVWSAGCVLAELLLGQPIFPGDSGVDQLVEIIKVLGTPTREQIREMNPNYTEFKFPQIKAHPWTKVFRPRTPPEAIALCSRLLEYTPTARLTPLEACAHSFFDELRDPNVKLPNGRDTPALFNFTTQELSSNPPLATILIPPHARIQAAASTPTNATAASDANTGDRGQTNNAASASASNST
Chain of RAF proto-oncogene serine/threonine-protein kinase (Homo sapiens) (P04049 whole entry): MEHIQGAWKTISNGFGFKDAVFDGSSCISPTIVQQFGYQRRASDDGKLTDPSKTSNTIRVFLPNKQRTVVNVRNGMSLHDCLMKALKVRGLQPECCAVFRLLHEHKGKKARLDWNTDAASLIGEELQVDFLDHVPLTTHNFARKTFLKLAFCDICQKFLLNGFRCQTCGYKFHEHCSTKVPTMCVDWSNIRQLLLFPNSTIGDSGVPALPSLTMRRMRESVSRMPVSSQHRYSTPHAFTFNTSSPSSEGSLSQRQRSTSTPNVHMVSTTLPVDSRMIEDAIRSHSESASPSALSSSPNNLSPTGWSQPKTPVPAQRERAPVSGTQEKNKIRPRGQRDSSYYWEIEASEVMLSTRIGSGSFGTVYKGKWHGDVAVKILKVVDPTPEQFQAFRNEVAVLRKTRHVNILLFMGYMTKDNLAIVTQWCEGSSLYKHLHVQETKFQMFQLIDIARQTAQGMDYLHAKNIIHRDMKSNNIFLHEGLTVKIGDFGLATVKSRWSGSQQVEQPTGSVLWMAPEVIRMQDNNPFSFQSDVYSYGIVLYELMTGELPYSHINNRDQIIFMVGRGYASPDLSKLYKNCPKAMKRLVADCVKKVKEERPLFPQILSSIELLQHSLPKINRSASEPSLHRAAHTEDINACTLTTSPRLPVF

Cc1cc(N/N=C/c2ccncc2)nc2ccccc12
Activity [1]: 86% | Activity [2]: 11% | Activity [3]: 50% | Activity [4]: 84% | Activity [5]: 94% | Activity [6]: 94% | Activity [7]: 67% | Activity [8]: 68% | Activity [9]: 28% | Activity [10]: Toxic | Activity [11]: 103% | inhibition [12]: Active
